# Laboratory results reported in PubChem BioAssay AID2060882 (Molecular Pharmacology Branch, DTP, NCI, 2025).
# System: 898857-211-R-J1-PDC complex spheroids, growth % test/control
# Assay: Anticancer human tumor 898857-211-R-J1-PDC patient-derived melanoma cell line growth inhibition [RAS]
# Settings: for viability, T/C: stronger effect = lower value
# Summary of the method: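 Tumour cells grown as complex spheroids with HUVEC endothelial cells and mesenchymal stem cells, treated with RAS pathway inhibitor combinations. Each agent spans half-log steps from near clinical Cmax, or 10 microM where Cmax is unknown.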
# [1] = curve of first compound, second compound 0.00316 µM
# [2] = curve of first compound, second compound 0.01 µM
# [3] = curve of first compound, second compound 0.0316 µM
# [4] = curve of first compound, second compound 0.1 µM
# [5] = curve of first compound, second compound 0.316 µM
# [6] = curve of first compound, second compound 1 µM
# [7] = second compound 0.00316 µM, first compound 0.0316 µM
# [8] = second compound 0.00316 µM, first compound 0.1 µM
# [9] = second compound 0.00316 µM, first compound 0.316 µM
# [10] = second compound 0.00316 µM, first compound 1 µM
# [11] = second compound 0.00316 µM, first compound 3.16 µM
# [12] = second compound 0.00316 µM, first compound 10 µM
# [13] = second compound 0.01 µM, first compound 0.0316 µM
# [14] = second compound 0.01 µM, first compound 0.1 µM
# [15] = second compound 0.01 µM, first compound 0.316 µM
# [16] = second compound 0.01 µM, first compound 1 µM
# [17] = second compound 0.01 µM, first compound 3.16 µM
# [18] = second compound 0.01 µM, first compound 10 µM
# [19] = second compound 0.0316 µM, first compound 0.0316 µM
# [20] = second compound 0.0316 µM, first compound 0.1 µM
# [21] = second compound 0.0316 µM, first compound 0.316 µM
# [22] = second compound 0.0316 µM, first compound 1 µM
# [23] = second compound 0.0316 µM, first compound 3.16 µM
# [24] = second compound 0.0316 µM, first compound 10 µM
# [25] = second compound 0.1 µM, first compound 0.0316 µM
# [26] = second compound 0.1 µM, first compound 0.1 µM
# [27] = second compound 0.1 µM, first compound 0.316 µM
# [28] = second compound 0.1 µM, first compound 1 µM
# [29] = second compound 0.1 µM, first compound 3.16 µM
# [30] = second compound 0.1 µM, first compound 10 µM
# [31] = second compound 0.316 µM, first compound 0.0316 µM
# [32] = second compound 0.316 µM, first compound 0.1 µM
# [33] = second compound 0.316 µM, first compound 0.316 µM
# [34] = second compound 0.316 µM, first compound 1 µM
# [35] = second compound 0.316 µM, first compound 3.16 µM
# [36] = second compound 0.316 µM, first compound 10 µM
# [37] = second compound 1 µM, first compound 0.0316 µM
# [38] = second compound 1 µM, first compound 0.1 µM
# [39] = second compound 1 µM, first compound 0.316 µM
# [40] = second compound 1 µM, first compound 1 µM
# [41] = second compound 1 µM, first compound 3.16 µM
# [42] = second compound 1 µM, first compound 10 µM
# 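Also: spheroids exposed to compound for seven days before readout.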
# 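For viability, T/C in this document: 100% = DMSO vehicle control wells.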
smiles,measurement,setting,value
Cc1nc(N2CCC3(CC2)COC(C)C3N)c(CO)nc1Sc1ccnc(N)c1Cl (configuration not stated),"viability, T/C",compound 0.0316 µM,100% [middle of 4 runs]
same,"viability, T/C",compound 0.1 µM,89.5% [middle of 4 runs]
same,"viability, T/C",compound 0.316 µM,101% [middle of 4 runs]
same,"viability, T/C",compound 1 µM,95.5% [middle of 4 runs]
same,"viability, T/C",compound 3.16 µM,99.2% [middle of 4 runs]
same,"viability, T/C",compound 10 µM,93.4% [middle of 4 runs]
same,IC50,curve of compound,> 10000 nM
CC1(O)CCCC1n1c(=O)c(C(F)F)cc2cnc(NC3CCN(S(C)(=O)=O)CC3)nc21 (configuration not stated) + C=CC(=O)N1CCN(c2nc(OCC3CCCN3C)nc3c(F)c(-c4nc(N)cc(C)c4C(F)(F)F)c(Cl)cc23)C(C)C1,IC50,[1],228 nM
same,IC50,[2],300 nM
same,IC50,[3],252 nM
same,IC50,[4],286 nM
same,IC50,[5],315 nM
same,IC50,[6],230 nM
same,"viability, T/C",[7],103%
same,"viability, T/C",[8],57.7%
same,"viability, T/C",[9],45.6%
same,"viability, T/C",[10],43.5%
same,"viability, T/C",[11],47.1%
same,"viability, T/C",[12],19.7%
same,"viability, T/C",[13],75.3%
same,"viability, T/C",[14],61%
same,"viability, T/C",[15],39%
same,"viability, T/C",[16],44.9%
same,"viability, T/C",[17],39.7%
same,"viability, T/C",[18],17.4%
same,"viability, T/C",[19],87.6%
same,"viability, T/C",[20],57.1%
same,"viability, T/C",[21],42.4%
same,"viability, T/C",[22],45.6%
same,"viability, T/C",[23],43.7%
same,"viability, T/C",[24],19.3%
same,"viability, T/C",[25],92.1%
same,"viability, T/C",[26],55.5%
same,"viability, T/C",[27],47.9%
same,"viability, T/C",[28],46.1%
same,"viability, T/C",[29],47.7%
same,"viability, T/C",[30],18.6%
same,"viability, T/C",[31],109%
same,"viability, T/C",[32],67%
same,"viability, T/C",[33],46%
same,"viability, T/C",[34],44.7%
same,"viability, T/C",[35],45.2%
same,"viability, T/C",[36],17.5%
same,"viability, T/C",[37],115%
same,"viability, T/C",[38],59.5%
same,"viability, T/C",[39],46.3%
same,"viability, T/C",[40],36%
same,"viability, T/C",[41],42.8%
same,"viability, T/C",[42],10.9%
CC(C)NCC(C(=O)N1CCN(c2ncnc3c2C(C)CC3O)CC1)c1ccc(Cl)cc1 (configuration not stated) + C=CC(=O)N1CCN(c2nc(OCC3CCCN3C)nc3c(F)c(-c4nc(N)cc(C)c4C(F)(F)F)c(Cl)cc23)C(C)C1,IC50,[1],> 10000 nM
same,IC50,[2],> 10000 nM
same,IC50,[3],> 10000 nM
same,IC50,[4],> 10000 nM
same,IC50,[5],> 10000 nM
same,IC50,[6],> 10000 nM
same,"viability, T/C",[7],108%
same,"viability, T/C",[8],99.8%
same,"viability, T/C",[9],97.5%
same,"viability, T/C",[10],89.2%
same,"viability, T/C",[11],81.2%
same,"viability, T/C",[12],70.1%
same,"viability, T/C",[13],101%
same,"viability, T/C",[14],104%
same,"viability, T/C",[15],104%
same,"viability, T/C",[16],85.8%
same,"viability, T/C",[17],85.9%
same,"viability, T/C",[18],70.7%
same,"viability, T/C",[19],111%
same,"viability, T/C",[20],101%
same,"viability, T/C",[21],114%
same,"viability, T/C",[22],103%
same,"viability, T/C",[23],78.9%
same,"viability, T/C",[24],60.8%
same,"viability, T/C",[25],118%
same,"viability, T/C",[26],110%
same,"viability, T/C",[27],102%
same,"viability, T/C",[28],88.8%
same,"viability, T/C",[29],91.8%
same,"viability, T/C",[30],66.7%
same,"viability, T/C",[31],114%
same,"viability, T/C",[32],129%
same,"viability, T/C",[33],126%
same,"viability, T/C",[34],112%
same,"viability, T/C",[35],93.3%
same,"viability, T/C",[36],71.4%
same,"viability, T/C",[37],116%
same,"viability, T/C",[38],121%
same,"viability, T/C",[39],117%
same,"viability, T/C",[40],112%
same,"viability, T/C",[41],97.5%
same,"viability, T/C",[42],70.4%
CC1(O)CCCC1n1c(=O)c(C(F)F)cc2cnc(NC3CCN(S(C)(=O)=O)CC3)nc21 (configuration not stated) + CCn1c(-c2cc(N3CCN(C)CC3)cnc2C(C)OC)c2c3cc(ccc31)-c1csc(n1)CC(NC(=O)C1CC1C)C(=O)N1CCCC(N1)C(=O)OCC(C)(C)C2,IC50,"curve of first compound, second compound 0.000949 µM",121 nM
same,IC50,"curve of first compound, second compound 0.003 µM",168 nM
same,IC50,"curve of first compound, second compound 0.00949 µM",138 nM
same,IC50,"curve of first compound, second compound 0.03 µM",124 nM
same,IC50,"curve of first compound, second compound 0.0949 µM",188 nM
same,IC50,"curve of first compound, second compound 0.3 µM",144 nM
same,"viability, T/C","second compound 0.000949 µM, first compound 0.0316 µM",92.9%
same,"viability, T/C","second compound 0.000949 µM, first compound 0.1 µM",49.7%
same,"viability, T/C","second compound 0.000949 µM, first compound 0.316 µM",35.1%
same,"viability, T/C","second compound 0.000949 µM, first compound 1 µM",38.6%
same,"viability, T/C","second compound 0.000949 µM, first compound 3.16 µM",36.2%
same,"viability, T/C","second compound 0.000949 µM, first compound 10 µM",15.2%
same,"viability, T/C","second compound 0.003 µM, first compound 0.0316 µM",90.7%
same,"viability, T/C","second compound 0.003 µM, first compound 0.1 µM",58.5%
same,"viability, T/C","second compound 0.003 µM, first compound 0.316 µM",33.5%
same,"viability, T/C","second compound 0.003 µM, first compound 1 µM",39.4%
same,"viability, T/C","second compound 0.003 µM, first compound 3.16 µM",35.1%
same,"viability, T/C","second compound 0.003 µM, first compound 10 µM",17.2%
same,"viability, T/C","second compound 0.00949 µM, first compound 0.0316 µM",78.2%
same,"viability, T/C","second compound 0.00949 µM, first compound 0.1 µM",51%
same,"viability, T/C","second compound 0.00949 µM, first compound 0.316 µM",37.6%
same,"viability, T/C","second compound 0.00949 µM, first compound 1 µM",34.7%
same,"viability, T/C","second compound 0.00949 µM, first compound 3.16 µM",37.5%
same,"viability, T/C","second compound 0.00949 µM, first compound 10 µM",15.4%
same,"viability, T/C","second compound 0.03 µM, first compound 0.0316 µM",100%
same,"viability, T/C","second compound 0.03 µM, first compound 0.1 µM",49.5%
same,"viability, T/C","second compound 0.03 µM, first compound 0.316 µM",38.4%
same,"viability, T/C","second compound 0.03 µM, first compound 1 µM",36.5%
same,"viability, T/C","second compound 0.03 µM, first compound 3.16 µM",36.7%
same,"viability, T/C","second compound 0.03 µM, first compound 10 µM",16.6%
same,"viability, T/C","second compound 0.0949 µM, first compound 0.0316 µM",96%
same,"viability, T/C","second compound 0.0949 µM, first compound 0.1 µM",53.6%
same,"viability, T/C","second compound 0.0949 µM, first compound 0.316 µM",43.2%
same,"viability, T/C","second compound 0.0949 µM, first compound 1 µM",38.7%
same,"viability, T/C","second compound 0.0949 µM, first compound 3.16 µM",37.2%
same,"viability, T/C","second compound 0.0949 µM, first compound 10 µM",16.9%
same,"viability, T/C","second compound 0.3 µM, first compound 0.0316 µM",107%
same,"viability, T/C","second compound 0.3 µM, first compound 0.1 µM",55.4%
same,"viability, T/C","second compound 0.3 µM, first compound 0.316 µM",33.6%
same,"viability, T/C","second compound 0.3 µM, first compound 1 µM",36.3%
same,"viability, T/C","second compound 0.3 µM, first compound 3.16 µM",34.2%
same,"viability, T/C","second compound 0.3 µM, first compound 10 µM",16%
C#Cc1c(F)ccc2cc(O)cc(-c3ncc4c(N5CC6CCC(C5)N6)nc(OCC56CCCN5CC(F)C6)nc4c3F)c12 (configuration not stated),"viability, T/C",compound 0.0316 µM,105% [middle of 8 runs]
same,"viability, T/C",compound 0.1 µM,111% [middle of 8 runs]
same,"viability, T/C",compound 0.316 µM,108% [middle of 8 runs]
same,"viability, T/C",compound 1 µM,109% [middle of 8 runs]
same,"viability, T/C",compound 3.16 µM,103% [middle of 8 runs]
same,"viability, T/C",compound 10 µM,50.8% [middle of 8 runs]
C[C@@H](NC(=O)c1ncnc(N)c1Cl)c1ncc(C(=O)Nc2cc(C(F)(F)F)c(Cl)cn2)s1,"viability, T/C",compound 0.1 µM,122% [middle of 4 runs]
same,"viability, T/C",compound 1 µM,81.2% [middle of 4 runs]
same,"viability, T/C",compound 10 µM,36.8% [middle of 4 runs]
